For 16 molecules, EC50 results are on record in patent US12528790B2, “Amide derivative having antiviral activity” (Shionogi & Co., Ltd., priority 2020, dated 2026).

Structures are written as SMILES. Read-outs that look alike come from different tables or passages of the source.

For test [1], the system named is RSV B (Wash/18537 strain). In words: In vitro CPE (CytoPathic Effect) inhibition effect evaluation test, RSV type B. It is filed as cell-based. In short, it runs like this:
(§1)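 EC50 is the concentration giving 50% inhibition of virus-induced cytopathic effect, fitted by nonlinear regression from CellTiter-Glo 2.0 viability. Compounds in 3-fold series were co-incubated at 37 °C with HEp-2 cells and RSV: A2 strain for 4 days, B (Wash/18537) for 5 days; uninfected wells served as control.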
Background: Protection from cytopathic effect is a common read-out in antiviral testing.

The next test relates to RSV A2 strain. In words: In vitro CPE (CytoPathic Effect) inhibition effect evaluation test, RSV type A. The class given is cell-based. In short, it runs like this:
as §1

The mark [2] stands for this setting: human respiratory syncytial virus, inhibitory effect against RSV type B, CPE inhibition, read-out: EC50.
Where [3] appears, read: human respiratory syncytial virus, inhibitory effect against RSV type A (RSV A2 strain), HEp-2 cells, CPE inhibition, read-out: EC50.
Where [4] appears, read: human respiratory syncytial virus, HEp-2, 120 h, HEp-2 cells, RSV B (Wash/18537 strain), 5 days, CellTiter-Glo, read-out: EC50, inhibitory effect against RSV type B (CPE inhibition).
Setting [5] is: human respiratory syncytial virus, HEp-2, 96 h, read-out: EC50, inhibitory effect against RSV type A (CPE inhibition).
Where [6] appears, read: inhibitory effect against RSV type B, CPE inhibition, read-out: EC50.
The mark [7] stands for this setting: inhibitory effect against RSV type A (RSV A2 strain), HEp-2 cells, CPE inhibition, read-out: EC50.

Broadly, the EC50 is the concentration giving half of the maximal effect. Regarding `O=C(NC1(C(=O)O)C2CC3CC(C2)CC1C3)c1ccc(-c2cn(C3CCC(F)(F)CC3)c3cc(OC4CCN(CC(F)(F)F)CC4)ccc23)nc1C(F)(F)F` (centres unmarked) [Compound I-511], the results for the EC50 (in test [1] (setting [2]); in the test with RSV A2 strain (setting [3])) were 10 to 100 nM and under 10 nM, respectively.

For `COCC(C)n1cc(-c2ncc(C(=O)NC3(C(=O)O)C4CC5CC(C4)CC3C5)c(C(F)(F)F)n2)c2ccc(OC3CCN(c4ncc(F)cn4)CC3)cc21` (racemic) [Compound I-430], the EC50 (in test [1] (setting [2]); in the test on RSV A2 strain (setting [3])) was under 10 nM throughout.

On to `O=C(NC1(C(=O)O)C2CC3CC(C2)CC1C3)c1cnc(N2CC(C3CCCC3)c3cc(OC4CCN(c5ncc(F)cn5)CC4)ccc32)nc1C(F)(F)F` (racemic) [Compound I-486], for which the values for the half-maximal effective concentration (EC50) (in test [1] (setting [4]); in the test on RSV A2 strain (setting [5])) were 28 nM and 3 nM, respectively.

As to `COCC(C)n1cc(-c2ncc(C(=O)NC3(C(=O)O)C4CC5CC(C4)CC3C5)c(C(C)(F)F)n2)c2ccc(OC3CCN(CC(C)(F)F)CC3)cc21` (centres unmarked) [Compound I-615], the concentration giving a half-maximal response (EC50) (in test [1] (setting [2]); with RSV A2 strain (setting [3])) was under 10 nM each time.

On to `CC(F)(F)c1nc(N2CC3(CCCCC3)c3cc(OC4CCN(C5CC(F)(F)C5)CC4)ccc32)ncc1C(=O)NC1(C(=O)O)C2CC3CC(C2)CC1C3` (centres unmarked) [Compound I-400], for which the EC50 in test [1] (setting [2]) was 10 to 100 nM; in the test with RSV A2 strain (setting [3]), under 10 nM.

Regarding `O=C(NC1(C(=O)O)C2CC3CC(C2)CC1C3)c1cnc(N2CC3(CCOCC3)c3cc(OCCN4CCOCC4)ccc32)nc1C(F)(F)F` (centres unmarked) [Compound I-86], the EC50 (in test [1] (setting [6]); in the test with RSV A2 strain (setting [7])) was under 10 nM throughout.

With `O=C(NC1(C(=O)O)C2CC3CC(C2)CC1C3)c1ccc(-c2cn(-c3ccccc3)c3cc(OC4CCN(c5ncccn5)CC4)ccc23)nc1C(F)(F)F` (centres unmarked) [Compound I-148], the values for the EC50 (in test [1] (setting [4]); in the test on RSV A2 strain (setting [5])) were 2.8 nM and 1.5 nM, respectively.

As for `O=C(NC1(C(=O)O)C2CC3CC(C2)CC1C3)c1cnc(-c2cn(C3CC3)c3cc(OC4CCN(c5ncc(F)cn5)CC4)ccc23)nc1C(F)(F)F` (centres unmarked) [Compound I-379], the EC50 (in test [1] (setting [2]); with RSV A2 strain (setting [3])) was under 10 nM throughout.

For the molecule `CC(F)(F)c1nc(N2CC3(CCOCC3)c3cc(-n4ncc5c4CCN(CC(F)(F)F)C5)ccc32)ncc1C(=O)NC1(C(=O)O)C2CC3CC(C2)CC1C3` (centres unmarked) [Compound I-596], the EC50 (in test [1] (setting [2]); in the test with RSV A2 strain (setting [3])) was under 10 nM in each case.

In the case of `CC(F)(F)c1nc(N2CC3(CCCCC3)c3cc(OC4CCN(c5nnc(C(F)(F)F)s5)CC4)ccc32)ncc1C(=O)NC1(C(=O)O)C2CC3CC(C2)CC1C3` (centres unmarked) [Compound I-535], the EC50 was 10 to 100 nM in test [1] (setting [2]) and under 10 nM with RSV A2 strain (setting [3]).

In the case of `O=C(NC1(C(=O)O)C2CC3CC(C2)CC1C3)c1cnc(-c2cn(C3CCC(F)(F)CC3)c3cc(OC4CCC5(CC4)CN(CC(F)(F)F)C5)ccc23)nc1C(F)(F)F` (centres unmarked) [Compound I-370], the figures for the EC50 (in test [1] (setting [2]); in the test with RSV A2 strain (setting [3])) were 10 to 100 nM and under 10 nM, respectively.

For the molecule `O=C(NC1(C(=O)O)C2CC3CC(C2)CC1C3)c1cnc(N2CC3(CCCC3)c3cc(OC4CCC5(CC4)COC5)ccc32)nc1C(F)(F)F` (centres unmarked) [Compound I-488], the concentration giving a half-maximal response (EC50) (in test [1] (setting [2]); in the test with RSV A2 strain (setting [3])) was under 10 nM throughout.

Take `CC(F)(F)c1nc(N2CC3(CCOCC3)c3cc(OC4CCC(N5CCC(F)(F)C5)CC4)ccc32)ncc1C(=O)NC1(C(=O)O)C2CC3CC(C2)CC1C3` (centres unmarked) [Compound I-541]: the EC50 (in test [1] (setting [6]); in the test with RSV A2 strain (setting [7])) was under 10 nM in each case.

On to `CC(F)(F)CN1CCC(Oc2ccc3c(-c4ncc(C(=O)NC5(C(=O)O)C6CC7CC(C6)CC5C7)c(C(F)(F)F)n4)cn(C4CCC(F)(F)CC4)c3c2)CC1` (centres unmarked) [Compound I-422], for which the EC50 (in test [1] (setting [2]); in the test on RSV A2 strain (setting [3])) was under 10 nM in each case.

As for `COCCCCOc1ccc2c(c1C)CCN2c1ncc(C(=O)NC2(C(=O)O)CCCCC2)c(C(F)(F)F)n1` [Compound I-1], the EC50 lay within 100 to 5000 nM in test [1] (setting [2]) and 10 to 100 nM in the test on RSV A2 strain (setting [3]).

For `CC(F)(F)c1nc(N2CC3(CCOCC3)c3cc(OC4CCN(CC5CC(F)(F)C5)CC4)ccc32)ncc1C(=O)NC1(C(=O)O)C2CC3CC(C2)CC1C3` (centres unmarked) [Compound I-533], the EC50 (in test [1] (setting [2]); with RSV A2 strain (setting [3])) was under 10 nM throughout.
